Legend:
Rattus norvegicus [1] = species on record: Rattus norvegicus
Description: In vivo prevention of bone loss in ovariectomised rats on oral administration

Estrogen receptor = Estrogen receptor (Rattus norvegicus, UniProt P06211+Q62986)
[2] = Oral bioavailability in cynomolgus monkey.; type: ADME, organism-based, Macaca fascicularis; conditions: in vivo
[3] = Oral bioavailability in rat; type: ADME, organism-based; conditions: in vivo
Rattus norvegicus [4] = species on record: Rattus norvegicus; remark: listed apart in the source
Description: In vivo prevention of reduced serum cholesterol in ovariectomised rats on oral administration

in vivo = conditions: rat, po

Structure (SMILES) | ED50 (Rattus norvegicus [1]) | IC50 (Estrogen receptor) | ED50 (Rattus norvegicus [4]) | bioavailability [3] | further results
Oc1ccc2c(c1)CC[C@H](c1ccccc1)[C@@H]2c1ccc(OCCN2CCCC2)cc1 (stereo in doubt; 14) [LASOFOXIFENE] | <1 µg/day/kg | 11.3 nM | 10 µg/day/kg | – | bioavailability [2]: 45%; F [3]: 62%
O=C(c1ccc(OCCN2CCCCC2)cc1)c1c(-c2ccc(O)cc2)sc2cc(O)ccc12 [RALOXIFENE] | 500 µg/day/kg | – | 500 µg/day/kg | – | bioavailability (in vivo): 10%; bioavailability ([2]; read-out: Bioavailabiility): 5%
Oc1ccc2c(c1)CC[C@H](c1ccccc1)[C@@H]2c1ccc(OCCN2CCCC2)cc1 (stereo in doubt; 9) [LASOFOXIFENE] | – | 11.1 nM | – | 60% | –
Oc1ccc2c(c1)CC[C@@H](c1ccccc1)[C@H]2c1ccc(OCCN2CCCC2)cc1 | >500 µg/day/kg | 270 nM | >500 µg/day/kg | 29% | –
Oc1ccc2c(c1)CCC(c1ccccc1)=C2c1ccc(OCCN2CCCC2)cc1 | – | 47.1 nM | – | – | –
Oc1ccc2c(c1)OC(c1ccc(OCCN3CCCC3)cc1)C(c1ccccc1)=C2 (centres undefined) | 175 µg/day/kg | 11.1 nM | 175 µg/day/kg | 27% | –
Oc1ccc2c(c1)CC[C@H](c1ccccc1)[C@H]2c1ccc(OCCN2CCCC2)cc1 | – | 9.75 nM | – | 16% | –
COc1ccc2c(c1)CCC(c1ccccc1)=C2c1ccc(OCCN2CCCC2)cc1 [NAFOXIDINE] | – | 40.9 nM | – | – | –
COc1ccc2c(c1)CCC(c1ccccc1)C2c1ccc(OCCN2CCCC2)cc1 (centres undefined) | – | 132 nM | – | – | –

From ChEMBL document CHEMBL1131044, “Discovery and preclinical pharmacology of a novel, potent, nonsteroidal estrogen receptor agonist/antagonist, CP-336156, a diaryltetrahydronaphthalene” (J Med Chem, 1998)
